Measured values: PubChem BioAssay (NCI)
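Test compounds were applied to cells in 96-well plates for 48 hours at 5 doses. TGI denotes the concentration required for complete inhibition of growth.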

What was measured:
Assay in all cases: DTP human tumour cell line panel, 48 h
RPMI-8226 leukemia = tested on: RPMI-8226 leukemia
HCC-2998 colon = tested on: HCC-2998 colon
MALME-3M melanoma = tested on: MALME-3M melanoma
HOP-92 NSCLC = tested on: HOP-92 NSCLC
SK-MEL-2 melanoma = tested on: SK-MEL-2 melanoma
UACC-62 melanoma = tested on: UACC-62 melanoma
MDA-MB-435 = tested on: MDA-MB-435
LOX IMVI melanoma = tested on: LOX IMVI melanoma
UACC-257 melanoma = tested on: UACC-257 melanoma
T-47D breast = tested on: T-47D breast
SNB-75 CNS = tested on: SNB-75 CNS
MDA-N = tested on: MDA-N
NCI-H23 lung = tested on: NCI-H23 lung
K-562 leukemia = tested on: K-562 leukemia
HT29 colon = tested on: HT29 colon
CCRF-CEM leukemia = tested on: CCRF-CEM leukemia
PC-3 prostate = tested on: PC-3 prostate
NCI/ADR-RES ovarian = tested on: NCI/ADR-RES ovarian
OVCAR-8 ovarian = tested on: OVCAR-8 ovarian
MCF7 breast = tested on: MCF7 breast
SR leukemia = tested on: SR leukemia
OVCAR-3 ovarian = tested on: OVCAR-3 ovarian
KM12 colon = tested on: KM12 colon
BT-549 breast = tested on: BT-549 breast
HOP-62 NSCLC = tested on: HOP-62 NSCLC
DU-145 prostate = tested on: DU-145 prostate
EKVX NSCLC = tested on: EKVX NSCLC
TK-10 renal = tested on: TK-10 renal
CAKI-1 renal = tested on: CAKI-1 renal
SNB-19 CNS = tested on: SNB-19 CNS
OVCAR-5 ovarian = tested on: OVCAR-5 ovarian
HCT-15 colon = tested on: HCT-15 colon
HS 578T breast = tested on: HS 578T breast
SF-268 CNS = tested on: SF-268 CNS
NCI-H226 lung = tested on: NCI-H226 lung
SK-MEL-28 melanoma = tested on: SK-MEL-28 melanoma
HCT-116 colon = tested on: HCT-116 colon
SN12C renal = tested on: SN12C renal
NCI-H522 lung = tested on: NCI-H522 lung
SK-MEL-5 melanoma = tested on: SK-MEL-5 melanoma
NCI-H460 lung = tested on: NCI-H460 lung
U251 CNS = tested on: U251 CNS
UO-31 renal = tested on: UO-31 renal
RXF 393 renal = tested on: RXF 393 renal
A498 renal = tested on: A498 renal
SW-620 colon = tested on: SW-620 colon
A549 NSCLC = tested on: A549 NSCLC
MOLT-4 leukemia = tested on: MOLT-4 leukemia
MDA-MB-231 breast = tested on: MDA-MB-231 breast
IGROV1 ovarian = tested on: IGROV1 ovarian
SF-539 CNS = tested on: SF-539 CNS
ACHN renal = tested on: ACHN renal
COLO 205 colon = tested on: COLO 205 colon
SK-OV-3 ovarian = tested on: SK-OV-3 ovarian
SF-295 CNS = tested on: SF-295 CNS
786-0 renal = tested on: 786-0 renal
OVCAR-4 ovarian = tested on: OVCAR-4 ovarian
HL-60(TB) leukemia = tested on: HL-60(TB) leukemia
M14 melanoma = tested on: M14 melanoma
LXFL 529 NSCLC = tested on: LXFL 529 NSCLC
DMS 273 small cell lung = tested on: DMS 273 small cell lung
M19-MEL melanoma = tested on: M19-MEL melanoma
DLD-1 colon = tested on: DLD-1 colon
KM20L2 colon = tested on: KM20L2 colon
SNB-78 CNS = tested on: SNB-78 CNS
XF 498 CNS = tested on: XF 498 CNS
HOP-18 NSCLC = tested on: HOP-18 NSCLC

SMILES: CCN(C(=O)N[C@@H](C)C(=O)N[C@@H](Cc1ccccc1)C(=O)OC)c1ccccc1
- TGI (RPMI-8226 leukemia): > 100 µM
- TGI (HCC-2998 colon): > 100 µM
- TGI (MALME-3M melanoma): 83.8 µM
- TGI (HOP-92 NSCLC): 68 µM
- TGI (SK-MEL-2 melanoma): > 100 µM
- TGI (UACC-62 melanoma): > 100 µM
- TGI (MDA-MB-435): > 100 µM
- TGI (LOX IMVI melanoma): > 100 µM
- TGI (UACC-257 melanoma): > 100 µM
- TGI (T-47D breast): > 100 µM
- TGI (SNB-75 CNS): > 100 µM
- TGI (MDA-N): > 100 µM
- TGI (NCI-H23 lung): > 100 µM
- TGI (K-562 leukemia): > 100 µM
- TGI (HT29 colon): > 100 µM
- TGI (CCRF-CEM leukemia): > 100 µM
- TGI (PC-3 prostate): > 100 µM
- TGI (NCI/ADR-RES ovarian): > 100 µM
- TGI (OVCAR-8 ovarian): > 100 µM
- TGI (MCF7 breast): > 100 µM
- TGI (SR leukemia): > 100 µM
- TGI (OVCAR-3 ovarian): > 100 µM
- TGI (KM12 colon): > 100 µM
- TGI (BT-549 breast): > 100 µM
- TGI (HOP-62 NSCLC): > 100 µM
- TGI (DU-145 prostate): > 100 µM
- TGI (EKVX NSCLC): > 100 µM
- TGI (TK-10 renal): > 100 µM
- TGI (CAKI-1 renal): > 100 µM
- TGI (SNB-19 CNS): > 100 µM
- TGI (OVCAR-5 ovarian): > 100 µM
- TGI (HCT-15 colon): > 100 µM
- TGI (HS 578T breast): > 100 µM
- TGI (SF-268 CNS): > 100 µM
- TGI (NCI-H226 lung): > 100 µM
- TGI (SK-MEL-28 melanoma): 78.8 µM
- TGI (HCT-116 colon): > 100 µM
- TGI (SN12C renal): 73.2 µM
- TGI (NCI-H522 lung): > 100 µM
- TGI (SK-MEL-5 melanoma): > 100 µM
- TGI (NCI-H460 lung): 38.4 µM
- TGI (U251 CNS): > 100 µM
- TGI (UO-31 renal): > 100 µM
- TGI (RXF 393 renal): > 100 µM
- TGI (A498 renal): > 100 µM
- TGI (SW-620 colon): > 100 µM
- TGI (A549 NSCLC): > 100 µM
- TGI (MOLT-4 leukemia): > 100 µM
- TGI (MDA-MB-231 breast): > 100 µM
- TGI (IGROV1 ovarian): > 100 µM
- TGI (SF-539 CNS): > 100 µM
- TGI (ACHN renal): > 100 µM
- TGI (COLO 205 colon): > 100 µM
- TGI (SK-OV-3 ovarian): > 100 µM
- TGI (SF-295 CNS): > 100 µM
- TGI (786-0 renal): > 100 µM
- TGI (OVCAR-4 ovarian): > 100 µM
- TGI (HL-60(TB) leukemia): > 100 µM
- TGI (M14 melanoma): > 100 µM

SMILES: CCOc1ccc(NC(=O)CC2SC(=Nc3ccc(C)cc3C)NC2=O)cc1 (stereo not drawn)
- TGI (RPMI-8226 leukemia): > 100 µM
- TGI (HCC-2998 colon): > 100 µM
- TGI (MALME-3M melanoma): > 100 µM
- TGI (HOP-92 NSCLC): > 100 µM
- TGI (SK-MEL-2 melanoma): > 100 µM
- TGI (UACC-62 melanoma): > 100 µM
- TGI (LOX IMVI melanoma): > 100 µM
- TGI (UACC-257 melanoma): > 100 µM
- TGI (SNB-75 CNS): > 100 µM
- TGI (NCI-H23 lung): > 100 µM
- TGI (K-562 leukemia): > 100 µM
- TGI (HT29 colon): > 100 µM
- TGI (CCRF-CEM leukemia): > 100 µM
- TGI (LXFL 529 NSCLC): > 100 µM
- TGI (OVCAR-8 ovarian): > 100 µM
- TGI (SR leukemia): > 100 µM
- TGI (OVCAR-3 ovarian): > 100 µM
- TGI (EKVX NSCLC): > 100 µM
- TGI (TK-10 renal): > 100 µM
- TGI (CAKI-1 renal): > 100 µM
- TGI (DMS 273 small cell lung): > 100 µM
- TGI (SNB-19 CNS): > 100 µM
- TGI (M19-MEL melanoma): > 100 µM
- TGI (OVCAR-5 ovarian): > 100 µM
- TGI (HCT-15 colon): > 100 µM
- TGI (SF-268 CNS): > 100 µM
- TGI (NCI-H226 lung): > 100 µM
- TGI (SK-MEL-28 melanoma): > 100 µM
- TGI (HCT-116 colon): > 100 µM
- TGI (SN12C renal): > 100 µM
- TGI (NCI-H522 lung): > 100 µM
- TGI (DLD-1 colon): > 100 µM
- TGI (SK-MEL-5 melanoma): > 100 µM
- TGI (NCI-H460 lung): > 100 µM
- TGI (U251 CNS): > 100 µM
- TGI (UO-31 renal): > 100 µM
- TGI (RXF 393 renal): > 100 µM
- TGI (A498 renal): > 100 µM
- TGI (SW-620 colon): > 100 µM
- TGI (A549 NSCLC): > 100 µM
- TGI (MOLT-4 leukemia): 65 µM
- TGI (KM20L2 colon): > 100 µM
- TGI (IGROV1 ovarian): > 100 µM
- TGI (SF-539 CNS): 63.7 µM
- TGI (ACHN renal): > 100 µM
- TGI (SF-295 CNS): > 100 µM
- TGI (SNB-78 CNS): > 100 µM
- TGI (786-0 renal): > 100 µM
- TGI (OVCAR-4 ovarian): > 100 µM
- TGI (HL-60(TB) leukemia): > 100 µM
- TGI (XF 498 CNS): > 100 µM
- TGI (M14 melanoma): > 100 µM

SMILES: FC(F)(F)c1ccc2nc(NCc3ccccc3)c(-c3ccccc3)nc2c1
- TGI (RPMI-8226 leukemia): 98.9 µM
- TGI (HCC-2998 colon): > 100 µM
- TGI (MALME-3M melanoma): > 100 µM
- TGI (HOP-92 NSCLC): 17.9 µM
- TGI (SK-MEL-2 melanoma): > 100 µM
- TGI (UACC-62 melanoma): > 100 µM
- TGI (LOX IMVI melanoma): 52.7 µM
- TGI (UACC-257 melanoma): > 100 µM
- TGI (SNB-75 CNS): > 100 µM
- TGI (NCI-H23 lung): > 100 µM
- TGI (HT29 colon): > 100 µM
- TGI (CCRF-CEM leukemia): > 100 µM
- TGI (LXFL 529 NSCLC): > 100 µM
- TGI (OVCAR-8 ovarian): > 100 µM
- TGI (SR leukemia): 80.8 µM
- TGI (OVCAR-3 ovarian): > 100 µM
- TGI (HOP-62 NSCLC): > 100 µM
- TGI (EKVX NSCLC): > 100 µM
- TGI (TK-10 renal): > 100 µM
- TGI (DMS 273 small cell lung): > 100 µM
- TGI (SNB-19 CNS): > 100 µM
- TGI (M19-MEL melanoma): > 100 µM
- TGI (OVCAR-5 ovarian): > 100 µM
- TGI (HCT-15 colon): > 100 µM
- TGI (SF-268 CNS): > 100 µM
- TGI (NCI-H226 lung): > 100 µM
- TGI (SK-MEL-28 melanoma): > 100 µM
- TGI (HCT-116 colon): > 100 µM
- TGI (SN12C renal): > 100 µM
- TGI (NCI-H460 lung): > 100 µM
- TGI (U251 CNS): 86.8 µM
- TGI (UO-31 renal): 92.9 µM
- TGI (RXF 393 renal): 71.5 µM
- TGI (SW-620 colon): > 100 µM
- TGI (A549 NSCLC): > 100 µM
- TGI (MOLT-4 leukemia): 72.5 µM
- TGI (KM20L2 colon): > 100 µM
- TGI (HOP-18 NSCLC): > 100 µM
- TGI (SF-539 CNS): > 100 µM
- TGI (ACHN renal): > 100 µM
- TGI (COLO 205 colon): > 100 µM
- TGI (SK-OV-3 ovarian): > 100 µM
- TGI (SF-295 CNS): > 100 µM
- TGI (SNB-78 CNS): > 100 µM
- TGI (786-0 renal): 53.1 µM
- TGI (HL-60(TB) leukemia): 48.9 µM
- TGI (XF 498 CNS): 43.5 µM
